The test system of one assay is U-266. Briefly: Antiproliferative activity against human U266 cells assessed as inhibition of cell proliferation. It is filed as functional, cell-based.
A further assay concerns the target Tubulin. Briefly: […] in human MCF7 cells assessed as induction of mitotic arrest. Format: cell-based.
In a further assay the test system is KB 3-1. Kind of assay: Cytotoxicity against human KB3-1 cells. It is filed as functional, cell-based.
Assay [1] can be described thus: Antiproliferative activity against human RPMI8226/MR20 cells assessed as inhibition of cell proliferation. Conditions: RPMI-8226. Format: functional, cell-based.
A further assay has as its system HCT-116. Kind of assay: Antiproliferative activity against human HCT116 cells assessed as inhibition of cell proliferation. It is filed as functional, cell-based.
The next assay deals with RPMI-8226. Kind of assay: Antiproliferative activity against human […] cells assessed as inhibition of cell proliferation. It is filed as functional, cell-based.
The test system of a further assay is HeLa. Briefly: Cytotoxicity against human HeLa cells. It is filed as functional, cell-based.
The next assay concerns MM1.S. Kind of assay: Antiproliferative activity against human MM1S cells assessed as inhibition of cell proliferation. Format: functional, cell-based.
Assay [2] can be described thus: Inhibition of GFP-tagged alpha-tubulin (unknown origin) expressed in human MCF7 cells assessed as disruption of microtubule polymerization. It is filed as cell-based.
Another assay has as its system KB-V1. Kind of assay: Cytotoxicity against human KBV1 cells. It is filed as functional, cell-based.
Assay [3] can be described thus: Antiproliferative activity against human 8226/LR-5 cells assessed as inhibition of cell proliferation. It is filed as functional, cell-based.
The next assay concerns Hs-578T. Briefly: Cytotoxicity against human Hs 578T cells. Format: functional, cell-based.
Assay [4] in a line: Inhibition of paclitaxel binding to microtubule (unknown origin). More on the design: species or system Homo sapiens.

Consider one molecule from ChEMBL document CHEMBL4270626, “Synthesis and antitumor activity of epothilone B” (Eur J Med Chem, 2018).

In general, pIC50 refers to the IC50 on a negative log10 scale, so that one unit is a factor of ten.

Structures are written as SMILES. pIC50: −log10 of the molar value.

For the molecule `C/C(=C\c1csc(C)n1)[C@@H]1C[C@@H]2O[C@]2(C)CCC[C@H](C)[C@H](O)[C@@H](C)C(=O)C(C)(C)[C@@H](O)CC(=O)O1` [PATUPILONE], the pIC50 in the assay with U-266 is 8.00 to 9.00; on Tubulin it was 8.46; in the assay on KB 3-1, 7.04 to 8.52; in assay [1] it was 8.00 to 9.00; in the assay with HCT-116, 9.10; in the assay with RPMI-8226, 8.00 to 9.00. The pIC50 was 7.04 to 8.52 in the assay on HeLa; 8.00 to 9.00 in the assay on MM1.S; 8.46 in [2]; 7.04 to 8.52 with KB-V1; 8.00 to 9.00 in assay [3]; 7.04 to 8.52 in the assay on Hs-578T. The pIC50 in [4] is 8.48.
